Reference: patent US7419785B2, “Methods and compositions in breast cancer diagnosis and therapeutics” (Baylor College of Medicine, priority 2001, dated 2008)

Columns and labels:
[1] = tested on: MCF-7 cells stably transfected with the mutant ER (A908G, Lys303Arg); test: Cell growth of MCF-7 clones stably transfected with the mutant ER in response to estradiol; assay type: cell-based, human; settings: cells expressing the ERα mutant, calculated from the growth curves
Procedure: (§1) The medium was replaced every 48 h and the cells were harvested and counted on days 2, 4, 6, and 8, respectively. Cell number X 10^4 is shown.
(§2) The WT ER expression construct was prepared in the pcDNAI vector as described previously (Fuqua et al., 1995). Site directed mutagenesis of this construct was then utilized to generate the A908G transition and the entire coding sequence of ER was verified by dideoxysequence analysis in this clone. The generation of stable transfectants was performed as described by Oesterreich et al. (1993) using cotransfection with the G418-selectable expression vector pSVneo at a ration of 25:1 with the ER plasmids into MCF-7 breast cancer cells. […] Two to three-fold elevated levels of total ER protein were detected in the two WT ER and the three Var clones. […] Furthermore, the relative levels of WT or Var sequences were determined by genomic sequence analysis as described above; the ER Var transfectants contained both WT nucleotide (A) and Var nucleotide (G) sequence in approximately equal ratios on the sequencing gels.
(§3) The proliferative response to hormones in breast cancer cell transfectants containing the mutation was tested to determine if this ER mutation confers a selective advantage. […] This cell line was chosen because it was determined that WT ERα was expressed along with the mutant in the original 2/4 typical hyperplastic lesions which were examined. […]

[2] = tested on: MCF-7 breast cancer cells; test: Cell growth of untransfected parental MCF-7 cells in response to estradiol; assay type: cell-based, human; settings: calculated from the growth curves
Procedure: as §1, §2, §3

[3] = tested on: breast cancer; settings: patients with a history of ADH receiving tamoxifen (Fisher et al., 1998); cited from earlier work
[4] = tested on: WT ERα and the A908G ERα mutation; test: Saturation binding Scatchard analyses; set-up: species or system human

C[C@]12CC[C@@H]3c4ccc(O)cc4CC[C@H]3[C@@H]1CC[C@@H]2O [estradiol]
doubling time ([1]; 10^−9 M of hormone): 1.3 days | doubling time ([1]; 10^−12 M of hormone): 1.3 days | doubling time ([2]; MCF-7 cells in 10^−9 M estradiol): 1.3 days | doubling time ([2]; MCF-7 cells in 10^−12 M estradiol): 2.2 days

CC/C(=C(\c1ccccc1)c1ccc(OCCN(C)C)cc1)c1ccccc1 [tamoxifen]
decrease in breast cancer incidence [3]: 85% | difference in affinity between WT ERα and the A908G ERα mutation [4]: nor were there differences in affinity
